# Assay results published in US8921576B2, “Spiroindoline compound, and medicinal agent comprising same” (Kowa Company, Ltd., priority 2011, dated 2014).
# Biological target: T1, GST-GK derived from human liver GK (Homo sapiens, UniProt P35557)
# T1 construct: made in house; host or cells: Escherichia coli DH5α
# T1 sequence (P35557 1-466 isoform P35557-2): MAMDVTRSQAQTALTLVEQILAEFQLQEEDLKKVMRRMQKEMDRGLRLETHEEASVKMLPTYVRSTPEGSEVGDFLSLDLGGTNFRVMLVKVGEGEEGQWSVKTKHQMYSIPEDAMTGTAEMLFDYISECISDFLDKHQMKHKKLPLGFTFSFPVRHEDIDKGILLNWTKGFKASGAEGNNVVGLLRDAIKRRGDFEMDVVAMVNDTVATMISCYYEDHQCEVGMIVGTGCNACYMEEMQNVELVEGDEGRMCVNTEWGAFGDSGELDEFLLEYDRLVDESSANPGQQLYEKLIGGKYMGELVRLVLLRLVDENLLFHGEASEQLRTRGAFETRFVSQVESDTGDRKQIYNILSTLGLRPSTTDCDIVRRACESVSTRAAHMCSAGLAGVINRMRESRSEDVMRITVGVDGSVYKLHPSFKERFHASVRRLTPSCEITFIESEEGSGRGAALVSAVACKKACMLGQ
# Assay: In vitro GK activity measurement test (G6PDH-coupled, OD340)
# Format: biochemical
# Settings: test compound 1 μmol/L; glucose 2.5 mmol/L; 25° C.; OD340 slope with compound / without compound; read-out: GK activation rate (%)
# Source text: cDNA (GenBank Accession No. NM_033507, human glucokinase, variant 2) encoding human liver-type GK polypeptide was cloned by performing a polymerase chain reaction (hereinafter referred to as “PCR”) using a human liver cDNA library (Human liver QUICK-Clone cDNA, TAKARA BIO INC.), and the thus cloned cDNA was then introduced into an expression vector (pGEX-3X, GE Healthcare Japan) for glutathione S transferase (hereinafter referred to as GST) fusion protein expression. The resulting vector was introduced into Escherichia coli (Competent high DH5α, Toyobo Co., Ltd.), and the transformed Escherichia coli was then cultured at 37° C. Thereafter, Isopropyl β-D-1-thiogalactopyranoside (final concentration: 1 mmol/L, Sigma Aldrich Japan) was added to the culture, and the obtained mixture was then cultured at 30° C. for 3 hours. Thereafter, a cell mass was recovered. The recovered cell mass was subjected to freezing-and-thawing, and the resulting cell mass was then suspended in phosphate buffer with final concentration of 1% Triton X-100, followed by disintegration with an ultrasonic disruptor. The homogenate was centrifuged at 33,200 rpm at 4° C. for 1 hour. Thereafter, the supernatant was recovered, and a GST-GK fusion protein was then purified using a glutathione column (GSTrap FF, GE Healthcare Japan). The obtained GST-GK fusion protein was divided into some portions each having a small volume, and the thus divided proteins were then preserved at −80° C.
# A GK assay method was carried out at 25° C. at a final incubation volume of 100 μL in a flat-bottom 96-well assay plate. An assay buffer comprised 25 mmol/L Hepes buffer (pH 7.1), 25 mmol/L KCl, 2.5 mmol/L or 10 mmol/L D-glucose, 5 mmol/L ATP, 1 mmol/L nicotinamide adenine dinucleotide phosphate (abbreviated as NADP), 2 mmol/L MgCl2, 1 mmol/L dithiothreitol (DTT), 2 units/mL glucose-6 phosphate dehydrogenase (G6PDH), and 1 μg/mL GST-GK derived from human liver GK. ATP, G6PDH, and NADP were purchased from Roche Diagnostics. […] The thus mixed solution was preincubated in an incubator in which the temperature was controlled at 25° C. for 15 minutes. Subsequently, the reaction was initiated by adding 10 μL of the GST-GK solution to the reaction mixture, resulting in a final concentration of 0.1 μg/mL. After initiation of the reaction, an increase in the optical concentration at 340 nm (OD340) was monitored with a microplate spectrophotometer (Varsamax, Molecular Devices Japan K.K.) every 10 seconds over an incubation period of 10 minutes. An inclination of the OD340 increase was defined as raw data. The GK activating rate was indicated as a numerical value obtained from the expression: (Inclination of OD340 increase by addition of the test compound)/(inclination of OD340 increase without addition of the test compound). The results of the GK activating rate obtained at a test compound concentration of 1 μmol/L under the condition of a glucose concentration of 2.5 mmol/L are shown in the following table.
row,activity at 1 µM,Compound
1,578%,"COc1ccc2nc(NC(=O)N3CC4(CCN(C(C)=O)C4)c4cc(S(=O)(=O)NCc5ccco5)ccc43)sc2n1 (centres unmarked) [Example 271, 1′-Acetyl-5-(N-(furan-2-ylmethyl)sulfamoyl)-N-(5-methoxythiazolo[5,4-b]pyridin-2-yl)spiro[indoline-3,3′-pyrrolidine]-1-carboxamide]"
2,531%,"CC(=O)OCC(=O)N1CC[C@@]2(C1)CN(C(=O)Nc1ncc(Cl)s1)c1ccc(Cl)cc12 [Example 52, (R)-2-(5-chloro-1-((5-chlorothiazol-2-yl)carbamoyl)spiro[indoline-3,3′-pyrrolidin]-1′-yl)-2-oxoethyl acetate]"
3,459%,"O=C(NCCCCO)N1CCC2(C1)CN(C(=O)Nc1ncc(Cl)s1)c1ccc(Cl)cc12 (centres unmarked) [Example 470, 5-chloro-N1-(5-chlorothiazol-2-yl)-N1′-(4-hydroxybutyl)spiro[indoline-3,3′-pyrrolidine]-1,1′-dicarboxamide]"
4,499%,"CNC(=O)C(=O)N1CCC2(C1)CN(C(=O)Nc1ncc(Cl)s1)c1ccc(Cl)cc12 (centres unmarked) [Example 46, 5-chloro-N-(5-chlorothiazol-2-yl)-1′-(2-(methylamino)-2-oxoacetyl)spiro[indoline-3,3′-pyrrolidine]-1-carboxamide]"
5,526%,"O=C(NCCCO)N1CCC2(C1)CN(C(=O)Nc1ncc(Cl)s1)c1ccc(Cl)cc12 (centres unmarked) [Example 464, 5-chloro-N1-(5-chlorothiazol-2-yl)-N1′-(3-hydroxypropyl)spiro[indoline-3,3′-pyrrolidine]-1,1′-dicarboxamide]"
6,606%,"COC(=O)NCCCSc1cnc(NC(=O)N2CC3(CCN(C(=O)OC)C3)c3cc(Cl)ccc32)s1 (centres unmarked) [Example 455, methyl 5-chloro-1-((5-((3-((methoxycarbonyl)amino)propyl)thio)thiazol-2-yl)carbamoyl)spiro[indoline-3,3′-pyrrolidine]-1′-carboxylate]"
7,705%,"CCOC(=O)CSc1cnc(NC(=O)N2C[C@]3(CCN(C(=O)OC)C3)c3cc(Br)ccc32)s1 [Example 334, (S)-methyl 5-bromo-1-((5-((2-ethoxy-2-oxoethyl)thio)thiazol-2-yl)carbamoyl)spiro[indoline-3,3′-pyrrolidine]-1′-carboxylate]"
8,645%,"CNC(=O)N1CC[C@@]2(C1)CN(C(=O)Nc1ncc(OC)s1)c1ccc(C(F)(F)F)cc12 [Example 489, (R)—N1-(5-Methoxythiazol-2-yl)-N1′-methyl-5-(trifluoromethyl)spiro[indoline-3,3′-pyrrolidine]-1,1′-dicarboxamide]"
9,535%,"CCOC(=O)CCCc1ccc2c(c1)C1(CCN(C(=O)NC)C1)CN2C(=O)Nc1ncc(Cl)s1 (centres unmarked) [Example 419, ethyl 4-(1-((5-chlorothiazol-2-yl)carbamoyl)-1′-(methylcarbamoyl)spiro[indoline-3,3′-pyrrolidin]-5-yl)butanoate]"
10,659%,"CNC(=O)N1CC[C@@]2(C1)CN(C(=O)Nc1ncc(F)s1)c1ccc(C(F)(F)F)cc12 [Example 487, (R)—N1-(5-Fluorothiazol-2-yl)-N1′-methyl-5-(trifluoromethyl)spiro[indoline-3,3′-pyrrolidine]-1,1′-dicarboxamide]"
11,470%,"O=C(CCCNC(=O)N1CCC2(C1)CN(C(=O)Nc1ncc(Cl)s1)c1ccc(Cl)cc12)N1CCC1 (centres unmarked) [Example 471, N1′-(4-(Azetidin-1-yl)-4-oxobutyl)-5-chloro-N1-(5-chlorothiazol-2-yl)spiro[indoline-3,3′-pyrrolidine]-1,1′-dicarboxamide]"
12,484%,"COCCCSc1cnc(NC(=O)N2CC3(CCN(C(=O)OC)C3)c3cc(Cl)ccc32)s1 (centres unmarked) [Example 162, Methyl 5-chloro-1-((5-((3-methoxypropyl)thio)thiazol-2-yl)carbamoyl)spiro[indoline-3,3′-pyrrolidine]-1′-carboxylate]"
13,886%,"COC(=O)N1CC[C@@]2(C1)CN(C(=O)Nc1ncc(Cl)s1)c1ccc(Cl)cc12 [Example 351, (S)-methyl 5-chloro-1-((5-chlorothiazol-2-yl)carbamoyl)spiro[indoline-3,3′-pyrrolidine]-1′-carboxylate]"
14,689%,"COCCN(CC1CC1)S(=O)(=O)c1ccc2c(c1)C1(CCN(C(C)=O)C1)CN2C(=O)Nc1nc2ccc(OC)nc2s1 (centres unmarked) [Example 300, 1′-Acetyl-5-(N-(cyclopropylmethyl)-N-(2-methoxyethyl)sulfamoyl)-N-(5-methoxythiazolo[5,4-b]pyridin-2-yl)spiro[indoline-3,3′-pyrrolidine]-1-carboxamide]"
15,456%,"CNC(=O)CCCNC(=O)N1CCC2(C1)CN(C(=O)Nc1ncc(Cl)s1)c1ccc(Cl)cc12 (centres unmarked) [Example 472, 5-Chloro-N1-(5-chlorothiazol-2-yl)-N1′-(4-(methylamino)-4-oxobutyl)spiro[indoline-3,3′-pyrrolidine]-1,1′-dicarboxamide]"
16,528%,"CNC(=O)N1CC[C@@]2(C1)CN(C(=O)Nc1ncc(Cl)s1)c1ccc(C#N)cc12 [Example 376, (R)—N1-(5-Chlorothiazol-2-yl)-5-cyano-N1′-methylspiro[indoline-3,3′-pyrrolidine]-1,1′-dicarboxamide]"
17,611%,"COC(=O)N1CC[C@@]2(C1)CN(C(=O)Nc1nc3ccc(OC)nc3s1)c1ccc(S(=O)(=O)N(CCN(C)C)Cc3ccccc3)cc12 [Example 347, (S)-methyl 5-(N-benzyl-N-(2-(dimethylamino)ethyl)sulfamoyl)-1-((5-methoxythiazolo[5,4-b]pyridin-2-yl)carbamoyl)spiro[indoline-3,3′-pyrrolidine]-1′-carboxylate]"
18,405%,"CCOC(=O)CCCNC(=O)N1CCC2(C1)CN(C(=O)Nc1ncc(Cl)s1)c1ccc(Cl)cc12 (centres unmarked) [Example 468, Ethyl 4-(5-chloro-1-((5-chlorothiazol-2-yl)carbamoyl)spiro[indoline-3,3′-pyrrolidin]-1′-ylcarboxamido)butanoate]"
19,500%,"CC(=O)N1CC(CNC(=O)N2CCC3(C2)CN(C(=O)Nc2ncc(Cl)s2)c2ccc(C(F)(F)F)cc23)C1 (centres unmarked) [Example 445, N1′-((1-acetylazetidin-3-yl)methyl)-N1-(5-chlorothiazol-2-yl)-5-(trifluoromethyl)spiro[indoline-3,3′-pyrrolidine]-1,1′-dicarboxamide]"
20,445%,"CC(=O)N1CC(CNC(=O)N2CCC3(C2)CN(C(=O)Nc2ncc(Cl)s2)c2ccc(Cl)cc23)C1 (centres unmarked) [Example 476, N1′-((1-acetylazetidin-3-yl)methyl)-5-chloro-N1-(5-chlorothiazol-2-yl)spiro[indoline-3,3′-pyrrolidine]-1,1′-dicarboxamide]"
21,476%,"CNC(=O)N1CCC2(C1)CN(C(=O)Nc1ncc(Cl)s1)c1ccc(Cl)cc12 (centres unmarked) [Example 373, 5-chloro-N1-(5-chlorothiazol-2-yl)-N1′-methylspiro[indoline-3,3′-pyrrolidine]-1,1′-dicarboxamide]"
22,416%,"COc1cnc(NC(=O)N2CC3(CCN(C(=O)CO)C3)c3cc(C(F)(F)F)ccc32)s1 (centres unmarked) [Example 441, 1′-(2-Hydroxyacetyl)-N-(5-methoxythiazol-2-yl)-5-(trifluoromethyl)spiro[indoline-3,3′-pyrrolidine]-1-carboxamide]"
23,411%,"COC(=O)N1CCC2(C1)CN(C(=O)Nc1ncc(SCC(=O)N(C)C)s1)c1ccc(Cl)cc12 (centres unmarked) [Example 131, methyl 5-chloro-1-((5-((2-(dimethylamino)-2-oxoethyl)thio)thiazol-2-yl)carbamoyl)spiro[indoline-3,3′-pyrrolidine]-1′-carboxylate]"
